{"source": "patent US11440935B2", "about": "“3″,5″-dimethoxybenzoyl-3′-amino-3′-deoxy adenosine-5′-triphosphates and pharmaceutical uses thereof” (Danmir Therapeutics, LLC, priority 2018, dated 2022)", "key": {"[1]": {"biological_target": "T1, P2Y6 (Homo sapiens, UniProt Q15077)", "T1 construct": "expressed in transfected cells", "T1 sequence (Q15077 whole entry)": "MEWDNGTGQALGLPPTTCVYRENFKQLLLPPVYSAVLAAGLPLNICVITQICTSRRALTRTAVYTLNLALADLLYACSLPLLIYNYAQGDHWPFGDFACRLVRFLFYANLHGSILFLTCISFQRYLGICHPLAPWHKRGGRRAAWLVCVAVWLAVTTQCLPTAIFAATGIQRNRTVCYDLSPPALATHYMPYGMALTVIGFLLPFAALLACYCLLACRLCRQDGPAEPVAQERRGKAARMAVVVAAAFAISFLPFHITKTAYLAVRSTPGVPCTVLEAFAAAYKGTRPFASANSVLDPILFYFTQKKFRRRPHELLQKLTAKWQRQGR", "assay": "PDSP functional assay in vitro (PRESTO-Tango), agonist/antagonist", "assay_type": "cell-based", "experimental": "(§1) The assays were carried out utilizing the method set forth in Kroeze et al., PRESTO-Tango as an open-source resource for interrogation of the druggable human GPCRome, Nat. Struct. Mol. Biol. 2015 May; 22(5):362-9."}, "[2]": {"biological_target": "T2, P2Y12 (Homo sapiens, UniProt Q9H244)", "T2 construct": "expressed in transfected cells", "T2 sequence (Q9H244 whole entry)": "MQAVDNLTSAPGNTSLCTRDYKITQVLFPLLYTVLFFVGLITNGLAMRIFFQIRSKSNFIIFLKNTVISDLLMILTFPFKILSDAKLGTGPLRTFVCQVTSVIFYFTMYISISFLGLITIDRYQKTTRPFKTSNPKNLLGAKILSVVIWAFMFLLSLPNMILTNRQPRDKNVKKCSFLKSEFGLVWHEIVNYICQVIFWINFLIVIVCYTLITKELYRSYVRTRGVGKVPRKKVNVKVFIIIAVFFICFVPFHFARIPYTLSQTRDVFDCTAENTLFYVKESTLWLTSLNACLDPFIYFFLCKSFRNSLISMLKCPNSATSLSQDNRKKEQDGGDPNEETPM", "assay": "PDSP functional assay in vitro (PRESTO-Tango), agonist/antagonist", "assay_type": "cell-based", "experimental": "as §1"}, "[3]": {"biological_target": "T3, P2Y2 (Homo sapiens, UniProt P41231)", "T3 construct": "expressed in transfected cells", "T3 sequence (P41231 whole entry)": "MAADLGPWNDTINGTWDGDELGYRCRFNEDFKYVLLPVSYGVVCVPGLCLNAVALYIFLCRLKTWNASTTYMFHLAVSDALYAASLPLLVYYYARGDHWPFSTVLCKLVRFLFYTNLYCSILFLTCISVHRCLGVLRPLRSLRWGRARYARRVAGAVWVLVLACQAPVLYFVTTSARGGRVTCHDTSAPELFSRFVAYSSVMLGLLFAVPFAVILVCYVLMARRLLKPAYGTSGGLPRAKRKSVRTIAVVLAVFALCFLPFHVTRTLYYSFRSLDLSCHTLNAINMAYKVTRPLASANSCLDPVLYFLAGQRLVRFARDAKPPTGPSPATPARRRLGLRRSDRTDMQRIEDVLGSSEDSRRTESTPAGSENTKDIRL", "assay": "PDSP functional assay in vitro (PRESTO-Tango), agonist/antagonist", "assay_type": "cell-based", "experimental": "as §1"}, "[4]": {"biological_target": "T4, P2Y14 (Homo sapiens, UniProt Q15391)", "T4 construct": "expressed in transfected cells", "T4 sequence (Q15391 1-338)": "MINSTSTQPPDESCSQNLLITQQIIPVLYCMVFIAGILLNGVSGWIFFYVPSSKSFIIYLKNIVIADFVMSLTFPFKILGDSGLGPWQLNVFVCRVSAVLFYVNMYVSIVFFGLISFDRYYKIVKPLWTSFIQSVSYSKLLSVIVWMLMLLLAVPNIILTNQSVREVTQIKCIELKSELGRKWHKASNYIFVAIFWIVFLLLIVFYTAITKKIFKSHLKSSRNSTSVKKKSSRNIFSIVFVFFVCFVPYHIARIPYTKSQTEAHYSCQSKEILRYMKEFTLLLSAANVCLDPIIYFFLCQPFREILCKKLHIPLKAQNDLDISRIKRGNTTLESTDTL", "assay": "PDSP functional assay in vitro (PRESTO-Tango), agonist/antagonist", "assay_type": "cell-based", "experimental": "as §1"}, "[5]": {"biological_target": "T5, P2Y1 (Homo sapiens, UniProt P47900)", "T5 construct": "expressed in transfected cells", "T5 sequence (P47900 whole entry)": "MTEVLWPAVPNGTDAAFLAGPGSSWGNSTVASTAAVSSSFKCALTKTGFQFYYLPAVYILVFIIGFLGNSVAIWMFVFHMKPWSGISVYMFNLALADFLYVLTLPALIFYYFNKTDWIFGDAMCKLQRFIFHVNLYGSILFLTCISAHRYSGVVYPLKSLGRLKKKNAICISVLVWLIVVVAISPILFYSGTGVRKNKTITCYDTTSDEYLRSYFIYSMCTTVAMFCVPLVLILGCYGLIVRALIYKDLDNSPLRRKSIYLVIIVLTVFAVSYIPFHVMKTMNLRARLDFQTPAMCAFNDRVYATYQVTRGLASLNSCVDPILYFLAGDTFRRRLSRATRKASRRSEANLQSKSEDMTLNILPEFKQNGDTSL", "assay": "PDSP functional assay in vitro (PRESTO-Tango), agonist/antagonist", "assay_type": "cell-based", "experimental": "as §1"}, "[6]": {"biological_target": "T6, P2Y13 (Homo sapiens, UniProt Q9BPV8)", "T6 construct": "expressed in transfected cells", "T6 sequence (Q9BPV8 1-354)": "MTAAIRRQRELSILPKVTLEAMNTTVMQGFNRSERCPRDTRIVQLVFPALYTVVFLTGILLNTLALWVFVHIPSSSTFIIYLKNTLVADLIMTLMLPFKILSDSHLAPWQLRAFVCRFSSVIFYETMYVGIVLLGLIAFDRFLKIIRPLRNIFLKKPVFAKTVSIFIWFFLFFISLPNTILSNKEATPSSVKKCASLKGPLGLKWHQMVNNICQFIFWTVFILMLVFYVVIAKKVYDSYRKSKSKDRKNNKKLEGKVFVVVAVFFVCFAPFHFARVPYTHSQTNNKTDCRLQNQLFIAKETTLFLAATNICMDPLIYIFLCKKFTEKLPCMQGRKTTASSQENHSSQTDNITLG", "assay": "PDSP functional assay in vitro (PRESTO-Tango), agonist/antagonist", "assay_type": "cell-based", "experimental": "as §1"}, "[7]": {"biological_target": "T7, P2Y4 (Homo sapiens, UniProt P51582)", "T7 construct": "expressed in transfected cells", "T7 sequence (P51582 whole entry)": "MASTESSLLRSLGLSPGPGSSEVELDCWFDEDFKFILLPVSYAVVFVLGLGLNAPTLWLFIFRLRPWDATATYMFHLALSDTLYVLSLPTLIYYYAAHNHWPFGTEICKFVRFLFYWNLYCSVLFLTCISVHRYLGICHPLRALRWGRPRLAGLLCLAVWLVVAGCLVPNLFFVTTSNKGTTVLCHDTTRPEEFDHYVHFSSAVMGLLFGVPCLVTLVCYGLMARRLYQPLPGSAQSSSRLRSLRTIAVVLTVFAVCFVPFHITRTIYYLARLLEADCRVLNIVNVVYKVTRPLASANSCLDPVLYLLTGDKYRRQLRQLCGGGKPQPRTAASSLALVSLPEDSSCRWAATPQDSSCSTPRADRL", "assay": "PDSP functional assay in vitro (PRESTO-Tango), agonist/antagonist", "assay_type": "cell-based", "experimental": "as §1"}, "[8]": {"system": "anesthetized guinea-pigs", "assay": "ATP-induced bronchoconstriction in anesthetized guinea-pig (tracheal pressure)", "assay_type": "in vivo", "conditions": "pretreatment with aerosolized DT-0111, anesthetized guinea-pigs", "experimental": "Male Dunkin-Hartley guinea pigs (GPs) (220-250 g, Charles River) were quarantined for 14 days. The housing room was constantly ventilated, and the temperature kept at 23° C. Mean body weight of the GPs on day of experiment was 336.0±9.9 g. Anesthesia were induced by using a mixture of ketamine+xylazine (40-80 mg/kg+5-10 mg/kg; IM) as previously published (Zhuang, et al., “High-Frequency Electrical Stimulatino of Cervical Vagi Reduces Airway Response to Methacholine,” World J. of Respirology 2013 Jul. 28; 3(2): 11-19). Supplementary anesthetic doses (¼-½ of the original dose) were administered as needed if ear pinch changed respiratory rate and/or upon the manifestation of an accelerated heart rate. Body temperature was monitored continuously with a rectal thermometer and maintained at approximately 36.5° C. using a heating pad and lamp. […]\nThe side branch of the tracheal cannulation was connected a pressure transducer. The pressure signal was pre-amplified by a bridge amplifier (AD Instruments Inc., CO) and then digitized and recorded. […] The pressure signal and animal rectal temperature were monitored and digitally recorded continuously in computer files throughout the experiment using the PowerLab/8 sp data acquisition system (AD Instruments) with DELL XPS 8700 computer equipped with Microsoft Windows 7 and LabChart Pro 7 software. […]"}}, "data": [{"substance": "Sodium 3′-N-(3,5-dimethoxybenzoyl)-3′-deoxy-β-D-adenosine 5′-triphosphate [DT-0111]", "values": [{"measurement": "agonist or antagonist action at receptor", "setting": "[1]", "value": "does not act as an agonist or antagonist"}, {"measurement": "agonist or antagonist action at receptor", "setting": "[2]", "value": "does not act as an agonist or antagonist"}, {"measurement": "agonist or antagonist action at receptor", "setting": "[3]", "value": "does not act as an agonist or antagonist"}, {"measurement": "agonist or antagonist action at receptor", "setting": "[4]", "value": "does not act as an agonist or antagonist"}, {"measurement": "agonist or antagonist action at receptor", "setting": "[5]", "value": "does not act as an agonist or antagonist"}, {"measurement": "agonist or antagonist action at receptor", "setting": "[6]", "value": "does not act as an agonist or antagonist"}, {"measurement": "agonist or antagonist action at receptor", "setting": "[7]", "value": "does not act as an agonist or antagonist"}, {"measurement": "tracheal pressure (Ptr) after ATP doses", "setting": "[8]", "value": "significantly suppressed"}]}]}
